Experimental data reported in patent US20250051338A1, “TYK2 DEGRADERS AND USES THEREOF” (Kymera Therapeutics, Inc., priority 2021, published 2025).

Key:
Type in all cases: cell-based
TYK2 [1] = molecular target: T1, TYK2 (Homo sapiens, UniProt P29597); assay: TYK2 degradation MSD assay in human PBMC cells; design: endogenous in cells; host or cells: human PBMC; settings: 4 to 24 hours incubation, read-out: TYK2 MSD DC50 rating in human PBMC
Method in brief: (§1)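 MSD electrochemiluminescence readout of residual TYK2 in RIPA lysates after 4–24 h compound exposure at 37° C. Dosing: 9 concentrations, 1:3 steps, top 1 to 10 μM. DC50 fitted by four-parameter inhibitor vs. response regression.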

TYK2 [2] = molecular target: T1, TYK2; assay: TYK2 degradation MSD assay in EBV-B cells; design: endogenous in cells; host or cells: EBV-B cells; settings: 4 to 24 hours incubation, read-out: TYK2 MSD DC50 rating in EBV-B
Method in brief: as §1

TYK2 [3] = molecular target: T1, TYK2; assay: TYK2 degradation MSD assay in OCI-LY10 cells; design: endogenous in cells; host or cells: EBV-B cells; settings: 4 to 24 hours incubation, read-out: TYK2 MSD DC50 rating in OCI-LY10
Method in brief: as §1

T1 sequence (P29597 whole entry): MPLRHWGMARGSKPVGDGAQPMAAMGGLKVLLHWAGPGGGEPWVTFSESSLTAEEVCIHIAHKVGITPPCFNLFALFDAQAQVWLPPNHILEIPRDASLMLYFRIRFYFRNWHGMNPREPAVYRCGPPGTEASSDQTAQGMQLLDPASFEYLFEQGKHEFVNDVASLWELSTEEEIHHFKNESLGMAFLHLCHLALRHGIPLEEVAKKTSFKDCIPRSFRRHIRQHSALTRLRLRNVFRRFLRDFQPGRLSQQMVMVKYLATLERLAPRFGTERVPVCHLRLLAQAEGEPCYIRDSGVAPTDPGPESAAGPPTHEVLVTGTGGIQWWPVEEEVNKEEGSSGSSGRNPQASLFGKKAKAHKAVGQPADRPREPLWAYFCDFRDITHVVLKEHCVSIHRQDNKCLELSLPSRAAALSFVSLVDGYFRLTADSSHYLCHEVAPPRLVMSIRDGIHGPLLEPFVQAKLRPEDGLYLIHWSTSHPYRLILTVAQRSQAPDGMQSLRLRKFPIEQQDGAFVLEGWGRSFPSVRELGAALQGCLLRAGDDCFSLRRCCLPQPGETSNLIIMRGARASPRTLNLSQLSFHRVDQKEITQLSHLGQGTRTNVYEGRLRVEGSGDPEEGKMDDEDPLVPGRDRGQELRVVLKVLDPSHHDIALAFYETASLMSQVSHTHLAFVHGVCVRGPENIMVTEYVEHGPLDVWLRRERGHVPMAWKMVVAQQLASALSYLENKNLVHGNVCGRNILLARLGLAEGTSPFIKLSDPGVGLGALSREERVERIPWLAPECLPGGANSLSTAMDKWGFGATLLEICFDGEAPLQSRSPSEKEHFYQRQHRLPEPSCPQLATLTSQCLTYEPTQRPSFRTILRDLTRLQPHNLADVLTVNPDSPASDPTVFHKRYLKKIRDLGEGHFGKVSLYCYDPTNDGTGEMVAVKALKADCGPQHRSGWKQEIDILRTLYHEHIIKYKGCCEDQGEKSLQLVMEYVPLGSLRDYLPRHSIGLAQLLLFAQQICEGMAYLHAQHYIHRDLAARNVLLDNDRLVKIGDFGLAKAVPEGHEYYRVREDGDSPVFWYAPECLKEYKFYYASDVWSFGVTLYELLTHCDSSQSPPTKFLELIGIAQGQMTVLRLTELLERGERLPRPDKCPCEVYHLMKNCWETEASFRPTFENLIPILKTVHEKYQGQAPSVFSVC

| DC50 (TYK2 [1]) | DC50 (TYK2 [2]) | DC50 (TYK2 [3]) | Compound |
| --- | --- | --- | --- |
| > 100 nM | > 100 nM | 1 to 10 nM | CNc1cc(N2CCc3c(N4CCC(CN5CCC(C#Cc6cccc7c6n(C)c(=O)n7C6CCC(=O)NC6=O)CC5)CC4)cccc32)nn2c(C(=O)N[C@@H]3C[C@@H]3F)cnc12 (stereo partly drawn) [Example K635] |
| > 100 nM | > 100 nM | < 1 nM | CNc1cc(N2CCc3c(-c4ccc(CN5CCC6(CC5)CCN(c5ccc7c(c5)n(C)c(=O)n7C5CCC(=O)NC5=O)CC6)cn4)cccc32)nn2c(C(=O)N[C@@H]3C[C@@H]3F)cnc12 (mixture of isomers) [Example K544] |
| > 100 nM | > 100 nM | 1 to 10 nM | Cn1c(=O)n(C2CCC(=O)NC2=O)c2ccc(-c3ccc(N4CCN(Cc5ccc(-c6cccc(Nc7nn8c(C(=O)N[C@@H]9C[C@@H]9F)cnc8c8c7OCCN8)c6Cl)nc5)CC4)cc3)cc21 (stereo partly drawn) [Example K642] |
| < 1 nM | > 100 nM | > 100 nM | CNc1cc(-c2cnn(C3CCN(C(=O)NCCCCCCCCc4ccc5c(c4)n(C)c(=O)n5C4CCC(=O)NC4=O)CC3)c2)nn2c(C(=O)N[C@@H]3C[C@@H]3F)cnc12 (stereo partly drawn) [Example K296] |
| > 100 nM | > 100 nM | > 100 nM | Cn1c(=O)n(C2CCC(=O)NC2=O)c2ccc(C3CCN(CCCNc4cc(Nc5cccn(-c6ccccn6)c5=O)nn5c(C(=O)N[C@@H]6C[C@@H]6F)cnc45)CC3)cc21 (stereo partly drawn) [Example K366] |
| > 100 nM | > 100 nM | < 1 nM | CNc1cc(Nc2cccn(-c3ccc(CNCc4ccc(N5CCC(N6CCC(c7ccc8c(c7)n(C)c(=O)n8C7CCC(=O)NC7=O)C6)CC5)cc4)cn3)c2=O)nn2c(C(=O)N[C@@H]3C[C@@H]3F)cnc12 (stereo partly drawn) [Example K437] |
| > 100 nM | > 100 nM | < 1 nM | CNc1cc(Nc2cccc(-c3ccc(CN4CCC(N5CC(c6cccc7c6n(C)c(=O)n7C6CCC(=O)NC6=O)C5)CC4)cn3)c2)nn2c(C(=O)N[C@@H]3C[C@@H]3F)cnc12 (stereo partly drawn) [Example K414] |
